Legend:
Experiment in all cases: Test B pre-/postemergence plant response
Format in all cases: in vivo
[1] = tested on: blackgrass (Alopecurus myosuroides)
Summary of the method: (§1)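 Visual scoring from 0 (no effect) to 100 (complete control) against untreated controls was done 13 to 15 days after greenhouse treatment. Chemicals were formulated in a surfactant-containing non-phytotoxic solvent and applied to soil preemergence or to 1- to 4-leaf (2-18 cm) plants postemergence.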

[2] = tested on: common (oilseed) sunflower (Helianthus annuus); conditions: Preemergence; for Sunflower plant response rating: scale 0 to 100
Summary of the method: as §1

kochia (Kochia scoparia) = conditions: for Kochia plant response rating: postemergence, 0-100 scale; for Plant response rating, Kochia: Postemergence
Summary of the method: as §1

[3] = tested on: giant foxtail (Setaria faberii)
Summary of the method: as §1

corn (Zea mays) = tested on: corn (Zea mays)
Summary of the method: as §1

[4] = tested on: velvetleaf (Abutilon theophrasti)
Summary of the method: as §1

[5] = tested on: yellow nutsedge (Cyperus esculentus)
Summary of the method: as §1

wild oat (Avena fatua) = tested on: wild oat (Avena fatua)
Summary of the method: as §1

[6] = tested on: common ragweed (Ambrosia elation)
Summary of the method: as §1

[7] = tested on: downy bromegrass (Bromus tectorum)
Summary of the method: as §1

[8] = tested on: lambsquarters (Chenopodium album)
Summary of the method: as §1

[9] = tested on: pigweed (Amaranthus retroflexus)
Summary of the method: as §1

[10] = tested on: woolly cupgrass (Eriochloa villosa)
Summary of the method: as §1

[11] = tested on: catchweed bedstraw (Galium aparine); conditions: Preemergence; for Galium plant response rating: scale 0 to 100
Summary of the method: as §1

[12] = 8 g ai/ha, postemergence, 0-100 scale
[13] = Postemergence, 16 g ai/ha, scale 0 to 100
[14] = Postemergence, 31 g ai/ha, scale 0 to 100
[15] = Postemergence, 62 g ai/ha, scale 0 to 100, 0 no effect, 100 complete control
[16] = Preemergence, 31 g ai/ha, scale 0 to 100 (0 no effect, 100 complete control)
[17] = Preemergence, 62 g ai/ha, 0 to 100 scale, 0 no effect, 100 complete control
[18] = Preemergence, 8 g ai/ha, scale 0 to 100
[19] = Preemergence, 16 g ai/ha, scale 0 to 100
[20] = 31 g ai/ha, scale 0 to 100 (0 no effect, 100 complete control)
[21] = 62 g ai/ha, 0 to 100 scale, 0 no effect, 100 complete control
[22] = 16 g ai/ha, postemergence, 0-100 scale

CCCc1cc(-c2ccc(Cl)cc2)nn1-c1c(O)cnn(C)c1=O [Compound 76]
Blackgrass plant response rating [1, 12]: 70
Plant response rating, Blackgrass [1, 13]: 85
Plant response rating, Blackgrass [1, 14]: 100
Plant response rating, Blackgrass [1, 15]: 100
Plant response rating, Blackgrass [1, 16]: 80
Plant response rating, Blackgrass [1, 17]: 90
Blackgrass plant response rating [1, 18]: 40
Blackgrass plant response rating [1, 19]: 40
Plant response rating, Sunflower [2, 20]: 0
Plant response rating, Sunflower [2, 21]: 0
Sunflower plant response rating ([2]; 8 g ai/ha): 0
Sunflower plant response rating ([2]; 16 g ai/ha): 0
Kochia plant response rating (kochia (Kochia scoparia); 8 g ai/ha): 0
Kochia plant response rating (kochia (Kochia scoparia); 16 g ai/ha): 0
Plant response rating, Kochia (kochia (Kochia scoparia); 31 g ai/ha, scale 0 to 100): 0
Plant response rating, Kochia (kochia (Kochia scoparia); 62 g ai/ha, scale 0 to 100, 0 no effect, 100 complete control): 0
Foxtail, Giant plant response rating [3, 12]: 75
Plant response rating, Foxtail, Giant [3, 13]: 85
Plant response rating, Foxtail, Giant [3, 14]: 95
Plant response rating, Foxtail, Giant [3, 15]: 98
Plant response rating, Foxtail, Giant [3, 16]: 90
Plant response rating, Foxtail, Giant [3, 17]: 100
Foxtail, Giant plant response rating [3, 18]: 0
Foxtail, Giant plant response rating [3, 19]: 70
Corn plant response rating (corn (Zea mays); [12]): 75
Plant response rating, Corn (corn (Zea mays); [13]): 85
Plant response rating, Corn (corn (Zea mays); [14]): 100
Plant response rating, Corn (corn (Zea mays); [15]): 100
Plant response rating, Corn (corn (Zea mays); [16]): 75
Plant response rating, Corn (corn (Zea mays); [17]): 85
Corn plant response rating (corn (Zea mays); [18]): 0
Corn plant response rating (corn (Zea mays); [19]): 55
Velvetleaf plant response rating [4, 12]: 0
Velvetleaf plant response rating [4, 22]: 0
Plant response rating, Velvetleaf [4, 14]: 0
Plant response rating, Velvetleaf [4, 15]: 0
Plant response rating, Velvetleaf [4, 16]: 0
Plant response rating, Velvetleaf [4, 17]: 0
Velvetleaf plant response rating [4, 18]: 0
Velvetleaf plant response rating [4, 19]: 0
Nutsedge, Yellow plant response rating [5, 12]: 0
Nutsedge, Yellow plant response rating [5, 22]: 0
Plant response rating, Nutsedge, Yellow [5, 14]: 0
Plant response rating, Nutsedge, Yellow [5, 15]: 0
Plant response rating, Nutsedge, Yellow [5, 16]: 100
Plant response rating, Nutsedge, Yellow [5, 17]: 100
Nutsedge, Yellow plant response rating [5, 18]: 100
Nutsedge, Yellow plant response rating [5, 19]: 100
Oat, Wild plant response rating (wild oat (Avena fatua); [12]): 80
Oat, Wild plant response rating (wild oat (Avena fatua); [22]): 95
Plant response rating, Oat, Wild (wild oat (Avena fatua); [14]): 100
Plant response rating, Oat, Wild (wild oat (Avena fatua); [15]): 100
Plant response rating, Oat, Wild (wild oat (Avena fatua); [16]): 5
Plant response rating, Oat, Wild (wild oat (Avena fatua); [17]): 80
Oat, Wild plant response rating (wild oat (Avena fatua); [18]): 0
Oat, Wild plant response rating (wild oat (Avena fatua); [19]): 0
Ragweed plant response rating [6, 12]: 0
Ragweed plant response rating [6, 22]: 0
Plant response rating, Ragweed [6, 14]: 0
Plant response rating, Ragweed [6, 15]: 0
Plant response rating, Ragweed [6, 16]: 0
Plant response rating, Ragweed [6, 17]: 0
Ragweed plant response rating [6, 18]: 0
Ragweed plant response rating [6, 19]: 0
Bromegrass, Downy plant response rating [7, 12]: 0
Plant response rating, Bromegrass, Downy [7, 13]: 0
Plant response rating, Bromegrass, Downy [7, 14]: 0
Plant response rating, Bromegrass, Downy [7, 15]: 20
Plant response rating, Bromegrass, Downy [7, 16]: 0
Plant response rating, Bromegrass, Downy [7, 17]: 0
Bromegrass, Downy plant response rating [7, 18]: 0
Bromegrass, Downy plant response rating [7, 19]: 0
Lambsquarters plant response rating [8, 12]: 0
Lambsquarters plant response rating [8, 22]: 0
Plant response rating, Lambsquarters [8, 14]: 0
Plant response rating, Lambsquarters [8, 15]: 0
Plant response rating, Lambsquarters [8, 16]: 0
Plant response rating, Lambsquarters [8, 17]: 0
Lambsquarters plant response rating [8, 18]: 0
Lambsquarters plant response rating [8, 19]: 0
Pigweed plant response rating [9, 12]: 0
Pigweed plant response rating [9, 22]: 0
Plant response rating, Pigweed [9, 14]: 0
Plant response rating, Pigweed [9, 15]: 0
Plant response rating, Pigweed [9, 16]: 0
Plant response rating, Pigweed [9, 17]: 0
Pigweed plant response rating [9, 18]: 0
Pigweed plant response rating [9, 19]: 0
Cupgrass, Woolly plant response rating [10, 12]: 60
Plant response rating, Cupgrass, Woolly [10, 13]: 65
Plant response rating, Cupgrass, Woolly [10, 14]: 85
Plant response rating, Cupgrass, Woolly [10, 15]: 90
Plant response rating, Cupgrass, Woolly [10, 16]: 90
Plant response rating, Cupgrass, Woolly [10, 17]: 98
Cupgrass, Woolly plant response rating [10, 18]: 55
Cupgrass, Woolly plant response rating [10, 19]: 75
Plant response rating, Galium [11, 20]: 0
Plant response rating, Galium [11, 21]: 0
Galium plant response rating ([11]; 8 g ai/ha): 0
Galium plant response rating ([11]; 16 g ai/ha): 0

Source: patent publication US20100267561A1, “HERBICIDAL PYRIDAZINONE DERIVATIVES” (priority 2007, published 2010)
